Data taken from PMC9608663, “Anti-Alzheimer and Antioxidant Effects of Nelumbo nucifera L. Alkaloids, Nuciferine and Norcoclaurine in Alloxan-Induced Diabetic Albino Rats” (Pharmaceuticals, 2022).
Values joined by “and” are separate entries in the source; they are usually repeats but may differ in a detail not shown here. Equal values may be shown once.

Tests used:
[1] = tested on: alloxan-induced diabetic rats; assay: Blood glucose level in alloxan-induced diabetic rats; format: in vivo, albino rats (Sprague–Dawley); conditions: 10 mg/kg b.w./day
Method: (§1) Forty-two (42) fully matured albino rats (200–250 g b.w.) of Sprague–Dawley types were purchased from National Institute of Health, Islamabad, Pakistan and kept under normal conditions for 15 days with 12-h dark/light rotation.
(§2) Alloxan monohydrate injection (100 mg/kg) was applied to experimental rats to induce diabetic conditions followed by giving 5% glucose water for 28 h in order to decrease the death probability in alloxan-induced rates from hyperglycemic shock. Over 300 mg/dL (3 mg/mL) blood glucose level (fasting blood plasma) was considered diabetic and a selective parameter for further study.
(§3) The rats were divided into seven groups (six rats in each group). Normal and diabetic control groups I and II, standard glibenclamide (10 mg/kg) group III, N. nucifera crude (100–200 mg/kg) groups IV and V and nuciferine and norcoclaurine (10 mg/kg) group VI and VII. Rats were anesthetized after 15 days and their organ sections were collected for different activities. Blood was collected from each rat and centrifuged at 4000 rpm for 10 min for antioxidant enzyme activities. The brain was homogenized in 100 mM Tris buffer (Sigma, Hamburg, Germany) (pH 8.0).

catalase (CAT) = assay: Catalase assay (CAT) in blood of diabetic rats; format: in vivo, albino rats (Sprague–Dawley); conditions: 10 mg/kg, 15 days
Method: as §3, with “8.0). Protein variation for several brain structures was measured followed by protein determination of striatum (0.3 mg/mL), hippocampus (0.6.0 mg/mL), cerebellum (0.7 mg/mL) and hypothalamus (0.4 mg/mL and cerebral cortex (0.8.0 mg/mL)).” for “8.0).”
Catalase activity was determined in blood samples by modified method of Chance and Maehly. The assay mixture comprised 0.1 mL blood serum, 2.5 mL phosphate buffer (pH 5) and 0.4 mL H2O2 while the absorbance was measured at 240 nm.

[2] = tested on: acetylcholinesterase (AChE); format: in vivo; conditions: blood of diabetic rats, 10 mg/kg, 15 days; table title: AChE activity, µmol AcSCh/h/mg of protein
Method: as §3
(§4) In the brain (hippocampus, cerebellum, hypothalamus, striatum and cerebral cortex) and in the blood, AChE activity was measured using calorimetric method with slight modification. The sample of 0.1 mL brain homogenate as well as blood serum (containing 100 mM potassium phosphate buffer (pH 7.5), 1 mM DTNB and 0.8 mM […] (Sigma, Hamburg, Germany) were tested as AChE enzyme. The increase in enzyme activity was measured at 412 nm after the formation of the yellow-colored anion of 4, 4-ditheo-bis-nitrobenzoic acid and experiments were performed in triplicates.

[3] = target: T1, acetylcholinesterase (AChE) (Rattus norvegicus, UniProt P37136); assay: AChE activity in brain regions of diabetic rats; format: in vivo; conditions: 10 mg/kg, 15 days; for AChE activity, Cerebellum: cerebellum homogenate; for AChE activity, Cerebral Cortex: cerebral cortex homogenate; for AChE activity, Hippocampus: hippocampus homogenate; for AChE activity, Hypothalamus: hypothalamus homogenate; for AChE activity, Striatum: striatum homogenate
T1 construct: from tissue; host or cells: rat brain homogenate (cerebral cortex, cerebellum, hypothalamus, striatum, hippocampus)
T1 sequence (P37136 32-614): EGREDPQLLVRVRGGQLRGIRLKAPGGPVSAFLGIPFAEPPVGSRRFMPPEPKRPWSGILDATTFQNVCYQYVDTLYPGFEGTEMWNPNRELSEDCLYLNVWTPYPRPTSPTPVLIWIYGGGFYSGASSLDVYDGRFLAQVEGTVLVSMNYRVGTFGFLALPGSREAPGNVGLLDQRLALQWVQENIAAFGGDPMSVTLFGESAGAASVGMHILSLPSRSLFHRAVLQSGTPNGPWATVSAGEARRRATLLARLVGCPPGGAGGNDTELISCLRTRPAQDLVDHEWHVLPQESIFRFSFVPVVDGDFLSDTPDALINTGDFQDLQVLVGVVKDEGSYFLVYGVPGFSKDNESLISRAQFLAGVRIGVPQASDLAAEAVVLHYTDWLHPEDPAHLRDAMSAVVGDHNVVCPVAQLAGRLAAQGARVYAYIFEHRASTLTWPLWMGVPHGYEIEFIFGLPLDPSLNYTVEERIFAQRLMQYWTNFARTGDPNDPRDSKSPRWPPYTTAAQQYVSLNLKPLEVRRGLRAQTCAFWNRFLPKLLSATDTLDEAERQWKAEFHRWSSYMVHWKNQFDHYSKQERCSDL
Method: as §3, §4

[4] = tested on: glutathione peroxidase (GPx); assay: Glutathione peroxidase assay (GSH-Px) in blood of diabetic rats; format: in vivo, albino rats (Sprague–Dawley); conditions: 10 mg/kg, 15 days
Method: as §3
Glutathione peroxidase assay was carried out by reaction mixtures of 0.1 mL blood serum with 1.49 mL phosphate buffer (pH 7.4), 0.1 mL EDTA, 0.1 mL sodium azide, 0.1 mL NADPH, 0.05 mL GSH and 0.01 mL H2O2. The intensity of color loss of NADPH was measured at 340 nm.

[5] = tested on: lipid peroxidation (TBARS); assay: Lipid peroxidation assay (TBARS) in blood of diabetic rats; format: in vivo, albino rats (Sprague–Dawley); conditions: 10 mg/kg, 15 days
Method: as §3
The lipid peroxidation activity in the blood sample was determined by slight modification in Sohal’s method. The reaction mixtures containing homogenate sample (0.2 mL) in 0.1 M phosphate buffer pH 7.4 (0.58 mL), ferric chloride (0.02 mL) and ascorbic acid (0.2 mL). The reaction mixture was incubated at […] for 1 h and stopped the reaction by adding 10% trichloro-acetic acid. The reaction mixture was continuously boiled, shaken for 20 min in a water bath and centrifuged for 10 min. The formation of TBARS was monitored at wavelength of 535 nm.

[6] = tested on: superoxide dismutase (SOD); assay: Superoxide dismutase assay (SOD) in blood of diabetic rats; format: in vivo, albino rats (Sprague–Dawley); conditions: 10 mg/kg, 15 days
Method: as §3
Superoxide dismutase activity was determined by an assay mixture containing 0.3 mL blood sample, 1.2 mL sodium pyrophosphate, 0.1 mL phenazine methosulphate and 0.2 mL NADH. The reaction was stopped within a minute by adding 1 mL of glacial acetic acid and the concentration of product was monitored at 560 nm.

[7] = Body weight of alloxan-induced diabetic rats; format: in vivo, albino rats (Sprague–Dawley); conditions: 10 mg/kg b.w./day
Method: as §1, §2, §3

[8] = tested on: reduced glutathione (GSH); assay: Reduced glutathione assay (GSH) in blood of diabetic rats; format: in vivo, albino rats (Sprague–Dawley); conditions: 10 mg/kg, 15 days
Method: as §3
GSH assay was carried out by mixing the blood serum with substrate DTNB by the modified method of Biessels.

Row | SMILES | Blood Glucose Level ([1]; day 0) [mg/mL] | Blood Glucose Level ([1]; day 5) [mg/mL] | Blood Glucose Level ([1]; day 10) [mg/mL] | Blood Glucose Level ([1]; day 15, 10 mg/kg/day) [mg/mL] | CAT (catalase (CAT)) [E/min/mg Protein] | AChE activity [2] [%] | AChE activity, Cerebellum [3] | AChE activity, Cerebral Cortex [3] | AChE activity, Hippocampus [3] | AChE activity, Hypothalamus [3] | AChE activity, Striatum [3] | GPx [4] [nmol NADPH/min/mg Protein] | TBARS [5] [nmol MDA/mg Protein] | SOD [6] [SOD/mg Protein] | Variations in Body Weight ([7]; day 0) [g] | Variations in Body Weight ([7]; day 5) [g] | Variations in Body Weight ([7]; day 10) [g] | GSH [8] [GSH/mg Protein] | Variations in Body Weight ([7]; day 15, 10 mg/kg/day) | other results
1 | COc1ccc(Cl)cc1C(=O)NCCc1ccc(S(=O)(=O)NC(=O)NC2CCCCC2)cc1 [glibenclamide, reference compound] | 2.00 ± 1.85 | 1.54 ± 1.68 | 1.37 ± 1.20 | 0.94 ± 1.20 | 6.45 ± 3.9 | 45 ± 2.01 | 50 ± 1.20 µmol AcSCh/h/mg of protein | 55 ± 2.06 µmol AcSCh/h/mg of protein | 43 ± 1.10 µmol AcSCh/h/mg of protein | 50 ± 2.15 µmol AcSCh/h/mg of protein | 46 ± 1.59 µmol AcSCh/h/mg of protein | 7.80 ± 1.6 | 1.55 ± 0.8 | 5.91 ± 0.3 | 180.11 ± 1.90 | 169.54 ± 2.41 | 171.23 ± 2.07 | 89.52 ± 4.74 |  | Blood Glucose Level ([1]; day 15, listed as glibencamide, 10 mg/kg/day): 0.94 ± 1.20 mg/mL; Variations in Body Weight ([7]; day 15): 179.50 ± 1.40 g
2 | Oc1ccc(CC2NCCc3cc(O)c(O)cc32)cc1 (stereo not shown) [norcoclaurine] | 2.10 ± 4.67 | 1.70 ± 3.25 | 1.58 ± 1.43 |  | 5.1 ± 0.3 | 55 ± 1.23 | 57 ± 1.40 µmol AcSCh/h/mg of protein | 60 ± 0.80 µmol AcSCh/h/mg of protein | 48 ± 0.20 µmol AcSCh/h/mg of protein | 60 ± 4.30 µmol AcSCh/h/mg of protein | 56 ± 0.90 µmol AcSCh/h/mg of protein | 6.70 ± 0.89 | 1.98 ± 0.9 | 6.2 ± 0.7 | 178.22 ± 7.61 | 159.85 ± 1.34 | 169.11 ± 3.01 | 76.68 ± 0.4 | 178.91 ± 1.32 g | Blood Glucose Level ([1]; day 15): 1.08 ± 3.15 mg/mL
3 | COc1cc2c3c(c1OC)-c1ccccc1C[C@H]3N(C)CC2 [nuciferine] | 2.05 ± 3.85 | 1.64 ± 2.51 | 1.42 ± 1.23 | 1.00 ± 1.45 | 6.16 ± 0.7 | 42 ± 7.43 | 53 ± 1.70 µmol AcSCh/h/mg of protein | 56 ± 1.41 µmol AcSCh/h/mg of protein | 41 ± 1.10 µmol AcSCh/h/mg of protein | 55 ± 3.20 µmol AcSCh/h/mg of protein | 50 ± 1.90 µmol AcSCh/h/mg of protein | 7.98 ± 0.9 | 1.60 ± 0.8 | 7.1 ± 0.2 | 177.43 ± 4.19 | 161.97 ± 2.21 | 173.22 ± 2.67 | 86.96 ± 0.7 | 182.33 ± 3.05 g and 177.33 ± 3.05 g | 
